Earlier results on one molecule are cited in patent US20260021104A1, “BRILAROXAZINE LIPOSOME COMPOSITION” (Reviva Pharmaceuticals, Inc., priority 2023, published 2026).

For data set [1], the target named is T1, 5-HT1A receptors (Homo sapiens, UniProt P08908).
T1 sequence (P08908 1-422): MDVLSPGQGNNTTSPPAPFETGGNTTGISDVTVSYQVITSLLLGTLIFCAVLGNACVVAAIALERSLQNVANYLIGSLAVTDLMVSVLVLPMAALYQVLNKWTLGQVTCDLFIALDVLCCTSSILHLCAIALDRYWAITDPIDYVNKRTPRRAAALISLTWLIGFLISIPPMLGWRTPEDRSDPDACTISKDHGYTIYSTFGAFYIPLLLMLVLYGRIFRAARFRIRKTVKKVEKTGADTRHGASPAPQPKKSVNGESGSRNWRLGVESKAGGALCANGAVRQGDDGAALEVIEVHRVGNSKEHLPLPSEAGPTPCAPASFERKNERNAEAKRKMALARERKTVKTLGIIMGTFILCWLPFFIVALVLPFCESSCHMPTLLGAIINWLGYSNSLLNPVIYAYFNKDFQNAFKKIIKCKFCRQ
The following applies: partial agonist.

Data set [2] deals with serotonin transporter (SERT) (Homo sapiens, UniProt P31645).
Data set [3] has as its system D2-4 receptors. The following applies: partial agonist.
Data set [4] concerns the target 5-HT2A (Homo sapiens, UniProt P28223). To be noted: weak partial agonist or neutral antagonist.
The subject of data set [5] is 5-HT2B/7. To be noted: antagonist.

5-HT2A, sequence (P28223 whole entry, species assumed): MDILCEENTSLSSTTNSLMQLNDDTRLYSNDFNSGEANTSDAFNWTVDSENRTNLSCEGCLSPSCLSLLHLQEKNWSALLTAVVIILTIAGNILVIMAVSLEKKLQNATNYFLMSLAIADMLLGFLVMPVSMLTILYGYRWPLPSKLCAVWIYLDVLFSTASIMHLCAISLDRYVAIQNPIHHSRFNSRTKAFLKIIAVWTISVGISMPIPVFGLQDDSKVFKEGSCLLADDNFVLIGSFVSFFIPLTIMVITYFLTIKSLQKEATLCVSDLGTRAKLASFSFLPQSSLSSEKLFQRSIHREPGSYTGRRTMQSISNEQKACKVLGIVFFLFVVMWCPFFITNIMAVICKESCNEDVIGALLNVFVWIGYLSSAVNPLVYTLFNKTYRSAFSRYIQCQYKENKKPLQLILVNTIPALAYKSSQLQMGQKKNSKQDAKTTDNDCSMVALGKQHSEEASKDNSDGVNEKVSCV
serotonin transporter (SERT), sequence (P31645 whole entry, species assumed): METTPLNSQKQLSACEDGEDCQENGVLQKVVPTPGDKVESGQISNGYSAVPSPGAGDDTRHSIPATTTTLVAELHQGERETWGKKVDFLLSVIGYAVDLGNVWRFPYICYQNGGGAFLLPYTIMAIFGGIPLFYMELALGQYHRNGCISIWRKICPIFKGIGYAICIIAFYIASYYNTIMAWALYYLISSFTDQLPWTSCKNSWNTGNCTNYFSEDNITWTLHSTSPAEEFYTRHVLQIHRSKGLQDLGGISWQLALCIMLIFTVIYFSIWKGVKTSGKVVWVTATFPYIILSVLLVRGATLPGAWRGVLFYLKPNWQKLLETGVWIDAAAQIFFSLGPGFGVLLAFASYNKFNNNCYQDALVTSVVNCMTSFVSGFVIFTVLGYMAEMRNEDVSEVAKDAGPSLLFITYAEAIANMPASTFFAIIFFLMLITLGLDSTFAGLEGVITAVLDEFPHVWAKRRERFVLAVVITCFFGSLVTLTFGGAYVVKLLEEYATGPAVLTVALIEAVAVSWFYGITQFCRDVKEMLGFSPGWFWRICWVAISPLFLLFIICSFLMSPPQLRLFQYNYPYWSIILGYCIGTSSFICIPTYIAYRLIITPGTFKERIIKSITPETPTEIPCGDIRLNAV

Consider `O=C1COc2ccc(OCCCCN3CCN(c4cccc(Cl)c4Cl)CC3)cc2N1` [Brilaroxazine], for which the binding affinity result in data set [1], in data set [3], in data set [4] and in data set [5] was “high binding affinity” throughout. Besides, in data set [2], the affinity entry is “moderate affinity”.
